Assay results from patent US8450342B2, “Perharidines as CDK inhibitors” (Centre Nationale de la Recherche Scientifique, priority 2008, dated 2013).
“And” between values parts separate entries of the source, which are not always exact repeats. Equal entries are not always repeated. Where two headings read alike, the source gives them in different places.

Legend:
CK1δ/ε = test: CK1 kinase assay; type: biochemical, porcine
Procedure: (§1) Blank values were subtracted and activities expressed in % of the maximal activity, i.e. in the absence of inhibitors. Controls were performed with appropriate dilutions of dimethylsulfoxide.

CDK1/cyclin B = CDK1/cyclin B kinase assay; type: biochemical, starfish
Procedure: (§2) Controls were performed with appropriate dilutions of dimethylsulfoxide.
(§3) ATP (3,000 Ci/mmol; 10 mCi/ml) in a final volume of 30 μl. After 30 min. incubation at 30° C., 25 μl aliquots of supernatant were spotted onto 2.5×3 cm pieces of Whatman P81 phosphocellulose paper, and, 20 sec. later, the filters were washed five times (for at least 5 min. each time) in a solution of 10 ml phosphoric acid/liter of water. The wet filters were counted in the presence of 1 ml ACS (Amersham) scintillation fluid.

GSK-3α/β = GSK-3α/β kinase assay; type: biochemical, porcine
Procedure: as §1

[1] = tested on: SH-SY5Y human neuroblastoma cells; test: Cell survival (MTS assay), SH-SY5Y; type: cell-based
Procedure: (§4) SH-SY5Y human neuroblastoma cells were grown in DMEM medium (Invitrogen, Cergy Pontoise, France). […] Human foreskin primary fibroblasts (kindly provided by Dr. Gilles Ponzio) were grown in DMEM supplemented with 2 mM L-glutamine and 20 mM HEPES. All the media were supplemented with antibiotics (penicillin-streptomycin) from Lonza and 10% volume of FCS from Invitrogen. Cells were cultured at 37° C. with 5% CO2. Drug treatments were performed on exponentially growing cultures at the indicated time and concentrations. Control experiments were carried out using appropriate dilutions of DMSO. MDCK cell-lines were used to test compounds PKD.

CDK9/cyclin T = biological target: T1, CDK9/cyclin T (Homo sapiens, UniProt P50750); test: CDK9/cyclin T kinase assay; type: biochemical
T1 construct: made in house; host or cells: insect cells
T1 sequence (P50750 whole entry): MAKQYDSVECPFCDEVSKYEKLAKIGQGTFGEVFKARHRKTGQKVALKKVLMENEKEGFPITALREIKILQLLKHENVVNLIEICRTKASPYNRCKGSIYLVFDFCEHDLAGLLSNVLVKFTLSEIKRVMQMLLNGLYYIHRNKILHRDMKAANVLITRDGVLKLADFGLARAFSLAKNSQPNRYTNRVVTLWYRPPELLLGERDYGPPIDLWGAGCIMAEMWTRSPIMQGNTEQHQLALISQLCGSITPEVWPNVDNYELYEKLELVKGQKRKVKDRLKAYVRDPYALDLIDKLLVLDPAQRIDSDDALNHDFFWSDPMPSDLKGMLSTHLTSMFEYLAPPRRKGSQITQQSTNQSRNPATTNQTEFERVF
T1 sequence (O60563 whole entry partner): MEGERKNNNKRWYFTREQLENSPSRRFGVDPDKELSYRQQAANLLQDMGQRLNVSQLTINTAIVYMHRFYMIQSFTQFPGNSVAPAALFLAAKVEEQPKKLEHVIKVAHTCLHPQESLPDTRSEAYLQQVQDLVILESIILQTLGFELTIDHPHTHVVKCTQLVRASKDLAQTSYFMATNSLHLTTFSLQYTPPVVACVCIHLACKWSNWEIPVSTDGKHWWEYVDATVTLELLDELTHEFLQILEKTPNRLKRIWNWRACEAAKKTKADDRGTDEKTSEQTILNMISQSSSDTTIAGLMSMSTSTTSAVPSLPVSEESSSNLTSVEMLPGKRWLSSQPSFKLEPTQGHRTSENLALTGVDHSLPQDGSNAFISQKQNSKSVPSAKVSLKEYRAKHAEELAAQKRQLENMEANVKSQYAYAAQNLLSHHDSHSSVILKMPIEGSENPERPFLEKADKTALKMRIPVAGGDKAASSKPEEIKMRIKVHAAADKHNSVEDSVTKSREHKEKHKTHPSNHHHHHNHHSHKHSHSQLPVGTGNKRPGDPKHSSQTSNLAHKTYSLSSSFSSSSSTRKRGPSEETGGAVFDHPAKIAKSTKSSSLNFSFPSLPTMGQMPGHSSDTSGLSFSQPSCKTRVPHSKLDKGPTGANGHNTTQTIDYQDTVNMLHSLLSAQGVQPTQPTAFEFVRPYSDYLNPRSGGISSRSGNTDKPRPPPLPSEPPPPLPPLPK
Procedure: as §1

CDK5/p25 = biological target: T2, CDK5/p25 (Homo sapiens, UniProt Q00535); test: CDK5/p25 kinase assay; type: biochemical
T2 construct: made in house
T2 sequence (Q00535 whole entry): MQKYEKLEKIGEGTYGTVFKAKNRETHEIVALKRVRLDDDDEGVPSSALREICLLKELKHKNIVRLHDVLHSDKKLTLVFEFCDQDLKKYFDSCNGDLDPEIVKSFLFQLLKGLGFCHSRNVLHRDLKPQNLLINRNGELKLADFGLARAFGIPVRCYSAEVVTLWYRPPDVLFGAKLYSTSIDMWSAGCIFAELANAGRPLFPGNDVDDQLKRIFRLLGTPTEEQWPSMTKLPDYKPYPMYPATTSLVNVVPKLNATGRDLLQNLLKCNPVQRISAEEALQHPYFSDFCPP
T2 sequence (Q15078 99-307 partner limits assumed): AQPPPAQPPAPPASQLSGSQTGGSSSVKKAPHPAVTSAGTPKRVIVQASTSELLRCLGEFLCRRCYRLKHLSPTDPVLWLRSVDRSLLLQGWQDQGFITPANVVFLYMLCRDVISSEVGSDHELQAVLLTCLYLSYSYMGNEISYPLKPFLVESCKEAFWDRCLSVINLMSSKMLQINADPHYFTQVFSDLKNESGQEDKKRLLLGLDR
Procedure: as §2, §3

pyridoxal kinase (PDXK) = biological target: T3, pyridoxal kinase (PDXK) (Sus scrofa, UniProt O46560); test: Competition on agarose beads with porcine brain lysate (silver staining assay), pyridoxal kinase; type: binding; conditions: FIG. 1, 500 μM or 100 μM
T3 construct: 1000 μg of porcine brain lysate; from tissue; host or cells: porcine brain lysate
T3 sequence (O46560 whole entry): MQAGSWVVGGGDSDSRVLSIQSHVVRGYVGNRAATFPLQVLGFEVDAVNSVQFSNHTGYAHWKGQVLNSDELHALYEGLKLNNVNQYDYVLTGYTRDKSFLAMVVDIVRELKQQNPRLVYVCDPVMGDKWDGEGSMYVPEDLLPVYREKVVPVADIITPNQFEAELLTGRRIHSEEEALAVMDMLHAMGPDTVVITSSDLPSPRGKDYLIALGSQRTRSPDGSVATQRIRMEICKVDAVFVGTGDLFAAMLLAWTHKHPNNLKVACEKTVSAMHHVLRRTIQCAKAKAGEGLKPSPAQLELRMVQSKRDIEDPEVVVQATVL
From the text: Indeed, the interaction of the compounds of the invention with pyridoxal kinase has been determined by the following method: (silver staining assay)

[2] = tested on: RNA polymerase II Ser2 phosphorylation; test: Western blot, RNA polymerase II Ser2 phosphorylation in SH-SY5Y; type: cell-based, human; conditions: FIG. 10
Procedure: SH-SY5Y human neuroblastoma cells were grown in DMEM medium (Invitrogen, Cergy Pontoise, France). The HEK 293 human embryonic kidney cell line was grown in MEM medium from Invitrogen. Human foreskin primary fibroblasts (kindly provided by Dr. Gilles Ponzio) were grown in DMEM supplemented with 2 mM L-glutamine and 20 mM HEPES. All the media were supplemented with antibiotics (penicillin-streptomycin) from Lonza and 10% volume of FCS from Invitrogen. Cells were cultured at 37° C. with 5% CO2. Drug treatments were performed on exponentially growing cultures at the indicated time and concentrations. Control experiments were carried out using appropriate dilutions of DMSO. MDCK cell-lines were used to test compounds PKD.
Cells were resuspended and lysed for 30 minutes at 4° C. in Homogenization Buffer [60 mM β-glycerophosphate, 15 mM p-nitrophenyl phosphate, 25 mM MOPS (pH 7.2), 15 mM EGTA, 15 mM MgCl2, 1 mM dithiothreitol, 1 mM sodium vanadate, 1 mM NaF, 1 mM phenylphosphate, 0.1% Nonidet P-40 and protease inhibitor cocktail] and sonicated. After centrifugation (14000 rpm for 15 minutes at 4° C.), the protein concentration was determined in the supernatants by the Bradford protein assay (Bio-Rad).
Whole cell extracts were prepared in buffer containing 100 mM Tris/HCl (pH, 6.8), 1 mM EDTA, 2% SDS and protease inhibitor cocktail. Following heat denaturation for 5 minutes, proteins were separated on 10% or 7% NuPAGE pre-cast Bis-Tris or Tris-Acetate polyacrylamide mini gels (Invitrogen) with MOPS SDS (all but cytochrome C, RNA polymerase II and phospho-Ser2—RNA polymerase II Western blots), MES SDS (cytochrome C), or Tris-Acetate SDS (RNA polymerase II and phospho-Ser2—RNA polymerase II) running buffer depending on protein size. Proteins were transferred to 0.45 μm nitrocellulose filters (Schleicher and Schuell). These were blocked with 5% low fat milk in Tris-Buffered Saline—Tween-20, incubated for 1 h with antibodies (anti-actin: 1:2000) or overnight at 4° C. (cytochome C: 1:500), Rb (1:500), phosphor-Rb (1:500), phospho-Thr320-PP1α (1:1000), RNA polymerase II (1:500), phosphor-Ser2-RNA polymerase II (1:500), Mcl-1 (1:500), caspase-9 (1:1000) and analyzed by Enhanced Chemiluminescence (ECL, Amersham).

Erk2 [3] = biological target: T4, Erk2 (Sus scrofa, UniProt A0A8W4FG96); test: Competition on agarose beads with porcine brain lysate (silver staining assay), Erk2; type: binding; conditions: FIG. 1, 500 μM or 100 μM
T4 construct: 1000 μg of porcine brain lysate; from tissue; host or cells: porcine brain lysate
T4 sequence (A0A8W4FG96 1-358): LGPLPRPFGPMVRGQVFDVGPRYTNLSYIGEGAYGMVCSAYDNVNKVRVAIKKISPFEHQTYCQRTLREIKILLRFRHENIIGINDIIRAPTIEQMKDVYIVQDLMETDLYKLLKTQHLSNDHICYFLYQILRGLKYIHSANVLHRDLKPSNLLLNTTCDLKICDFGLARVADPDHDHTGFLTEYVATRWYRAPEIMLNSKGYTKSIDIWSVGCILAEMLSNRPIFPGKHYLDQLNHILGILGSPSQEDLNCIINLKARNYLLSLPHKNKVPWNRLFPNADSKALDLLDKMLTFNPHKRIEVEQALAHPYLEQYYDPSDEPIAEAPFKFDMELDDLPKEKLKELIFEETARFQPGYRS

DYRK1A = DYRK1A (Homo sapiens, UniProt Q13627); test: DYRK1A kinase assay; type: biochemical
Procedure: as §1
(§5) The compounds were tested at various concentrations in the kinase assays, as described in the Methods section.

B2-CLL lymphocytes = test: Survival / cell death of B2-CLL lymphocytes from patients; type: cell-based, human; conditions: Homo sapiens, Lymphocyte
Procedure: Cell viability was determined by measuring the reduction of 3-(4,5-dimethylthiazol-2-yl)-5-(3-carboxymethoxyphenyl)-2-(4-sulfophenyl)-2/H-tetrazolium (MTS). Cell death was determined by measuring the level of lactate dehydrogenase activity (LDH) released upon cell lysis.

LS 174T (Oncodesign) = test: Cell survival, LS 174T (Oncodesign); type: cell-based; conditions: Homo sapiens, LS174T; Table 6
CDK2/cyclin A = biological target: T5, CDK2/cyclin A (Homo sapiens, UniProt P24941); test: CDK2/cyclin A kinase assay; type: biochemical
T5 construct: made in house; host or cells: insect cells
Procedure: as §1
CDK2/cyclin A (human, recombinant, expressed in insect cells) was assayed as described for CDK1/cyclin B.

Erk2 [4] = biological target: Erk2 (Homo sapiens, UniProt P28482); test: Erk2 kinase assay; type: biochemical; conditions: Table 5
Erk2 (Homo sapiens, UniProt P28482), sequence (P28482 whole entry, species assumed): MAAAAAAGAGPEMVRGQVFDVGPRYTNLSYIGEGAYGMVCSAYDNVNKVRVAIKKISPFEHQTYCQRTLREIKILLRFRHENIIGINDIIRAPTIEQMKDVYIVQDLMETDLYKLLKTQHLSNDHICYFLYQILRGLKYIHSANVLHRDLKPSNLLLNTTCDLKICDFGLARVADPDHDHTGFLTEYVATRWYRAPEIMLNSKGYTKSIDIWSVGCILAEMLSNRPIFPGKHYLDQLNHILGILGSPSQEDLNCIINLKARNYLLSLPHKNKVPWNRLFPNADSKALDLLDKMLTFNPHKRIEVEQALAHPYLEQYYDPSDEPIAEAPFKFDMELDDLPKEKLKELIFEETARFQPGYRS
Procedure: as §1, §5

CDK2/cyclin E = CDK2/cyclin E (Homo sapiens, UniProt P24941); test: CDK2/cyclin E kinase assay; type: biochemical; conditions: Table 5
Procedure: as §2, §5

HCT116 (Oncodesign) = test: Cell survival, HCT116 (Oncodesign); type: cell-based; conditions: Homo sapiens, HCT-116; Table 6
[5] = tested on: HEK 293 human embryonic kidney cell line; test: Cell survival (MTS assay), HEK293; type: cell-based; conditions: HEK293, Table 4, MTS assay
Procedure: as §4

[6] = read-out: Inhibition of CK1, IC50
[7] = read-out: Inhibition of CDK1/cyclin B, IC50
[8] = read-out: Inhibition of GSK3beta, IC50
[9] = read-out: Inhibition of the tumor cell-line SHSY-5Y, IC50
[10] = read-out: Inhibition of CDK5/p25, IC50
[11] = Table 4, MTS assay, read-out: SH-SY5Y cell survival
[12] = read-out: Inhibition of DYRK1A, IC50

CC(C)n1cnc2c(NCc3ccc(-c4ccccn4)cc3)cc(NC(CO)[C@@H](C)O)nc21 (stereo in doubt) [Ij, (R,R)-2-[[3-isopropyl-7-[[4-(2-pyridyl)phenyl]methylamino]imidazo[4,5-b]pyridin-5-yl]amino]butane-1,3-diol]
IC50 (CK1δ/ε; [6]): 530 nM | IC50 (CDK1/cyclin B; [7]): 150 nM | IC50 (GSK-3α/β; [8]): 13000 nM | IC50 [1, 9]: 150 nM | IC50 (CDK9/cyclin T; read-out: Inhibition of CDK9/cyclin T, IC50): 140 nM | IC50 (CDK5/p25; [10]): 180 nM

CC[C@H](CO)Nc1nc(NCc2ccccc2)c2ncn(C(C)C)c2n1 [(R)-Roscovitine, Roscovitine]
competitor effect for pyridoxal kinase (PDXK) (pyridoxal kinase (PDXK)): exhibited a competitor effect | total RNA pol II [2]: essentially constant | competitor effect for Erk2 (Erk2 [3]): exhibited a competitor effect

CC[C@@H](CO)Nc1cc(NCc2ccc(-c3ccccn3)cc2)c2ncn(C(C)C)c2n1 [(S)-perharidine D, (S)-7-[4-(2-Pyridyl)-benzylaminol]-5-[(2-butyl-1ol)amino]-3-iso-propylimidazo[4,5-b]pyridine]
IC50 (DYRK1A; Table 5, read-out: DYRK1A): 2800 nM | IC50 (CK1δ/ε; Table 5, read-out: CK1): 1900 nM | IC50 (CDK1/cyclin B; Table 5, read-out: CDK1/cyclin B): 270 nM | IC50 (GSK-3α/β; Table 5, read-out: GSK-3α/β): 24500 nM | IC50 (B2-CLL lymphocytes; LLC B-cells, read-out: Cell death induction): 130 nM | IC50 (B2-CLL lymphocytes; Table 6, read-out: Chronic Lymphocytic Leukemia cell survival): 130 nM | IC50 (LS 174T (Oncodesign)): 99 nM | IC50 (CDK2/cyclin A; Table 5, read-out: CDK2/cyclin A): 150 nM | IC50 ([1]; Table 6, MTS assay, read-out: SH-SY5Y cell survival): 660 nM | IC50 (CDK9/cyclin T; Table 5, read-out: CDK9/cyclin T): 120 nM | IC50 (Erk2 [4]): 9000 nM | IC50 (CDK2/cyclin E): 100 nM | IC50 (HCT116 (Oncodesign)): 300 nM | IC50 (CDK5/p25; Table 5, read-out: CDK5/p25): 200 nM

CC(C)n1cnc2c(NCc3ccccc3)cc([N+](=O)[O-])nc21 [Formula Ie]
IC50 (CK1δ/ε; Table 4, read-out: CK1): 1000 nM | IC50 (CDK1/cyclin B; Table 4, read-out: CDK1): 1000 nM | IC50 [5]: 46000 nM | IC50 (GSK-3α/β; Table 4, read-out: GSK3): > 10000 nM | IC50 [1, 11]: 74000 nM | IC50 (CDK5/p25; Table 4, read-out: CDK5): 800 nM

CC(C)n1cnc2c(NCc3ccccc3)cc(N)nc21 [Formula If]
IC50 (CK1δ/ε; Table 4, read-out: CK1): 8000 nM | IC50 (CDK1/cyclin B; Table 4, read-out: CDK1): 4000 nM | IC50 [5]: > 100000 nM | IC50 (GSK-3α/β; Table 4, read-out: GSK3): > 10000 nM | IC50 [1, 11]: > 100000 nM | IC50 (CDK5/p25; Table 4, read-out: CDK5): 3800 nM

CC(C)n1cnc2c(NCc3ccccc3)cc(NC(=O)C(F)(F)F)nc21 [Formula Ig]
IC50 (CK1δ/ε; Table 4, read-out: CK1): 3000 nM | IC50 (CDK1/cyclin B; Table 4, read-out: CDK1): 530 nM | IC50 [5]: > 100000 nM | IC50 (GSK-3α/β; Table 4, read-out: GSK3): > 10000 nM | IC50 [1, 11]: > 100000 nM | IC50 (CDK5/p25; Table 4, read-out: CDK5): 630 nM

CC(C)n1cnc2c(NCc3ccc(-c4ccccn4)cc3)cc(NC[C@H](O)CO)nc21 [Ik, (2S)-3-[[3-isopropyl-7-[[4-(2-pyridyl)phenyl]methylamino]imidazo[4,5-b]pyridin-5-yl]amino]propane-1,2-diol]
IC50 (CK1δ/ε; [6]): 380 nM | IC50 (CDK1/cyclin B; [7]): 200 nM | IC50 (GSK-3α/β; [8]): > 10000 nM | IC50 (CDK2/cyclin A; unit inferred, read-out: Inhibition of CDK2/cyclin A, IC50): 120 nM | IC50 [1, 9]: 180 nM | IC50 (CDK5/p25; [10]): 170 nM

CC[C@@H](CO)Nc1cc(NCc2ccc(-c3ccccc3)cc2)c2ncn(C(C)C)c2n1 [Il, (2S)-2-[[3-isopropyl-7-[(4-phenylphenyl)methylamino]imidazo[4,5-b]pyridin-5-yl]amino]butan-1-ol]
IC50 (DYRK1A; [12]): 4500 nM | IC50 (CK1δ/ε; [6]): 2000 nM | IC50 (GSK-3α/β; [8]): > 10000 nM | IC50 (CDK5/p25; unit inferred, read-out: Inhibition of CDK5/p25, IC50): 600 nM

CC[C@H](CO)Nc1cc(NCc2ccc(-c3ccccc3)cc2)c2ncn(C(C)C)c2n1 [Im, (R) 2-[[3-isopropyl-7-[(4-phenylphenyl)methylamino]imidazo[4,5-b]pyridin-5-yl]amino]butan-1-ol]
IC50 (CK1δ/ε; [6]): 1200 nM | IC50 (CDK5/p25; [10]): 810 nM

CC[C@@H](N)COc1cc(NCc2ccc(-c3ccccc3)cc2)c2ncn(C(C)C)c2n1 [In, (R)-5-(2-aminobutoxy)-3-isopropyl-N-[(4-phenylphenyl)methyl]imidazo[4,5-b]pyridine-7-amine]
IC50 (DYRK1A; [12]): 4000 nM | IC50 (CK1δ/ε; [6]): 120 nM | IC50 (GSK-3α/β; [8]): 7000 nM | IC50 (CDK5/p25; [10]): 550 nM

CC[C@H](N)COc1cc(NCc2ccc(-c3ccccc3)cc2)c2ncn(C(C)C)c2n1 [Ip, (S)-5-(2-aminobutoxy)-3-isopropyl-N-[(4-phenylphenyl)methyl]imidazo[4,5-b]pyridin-7-amine]
IC50 (DYRK1A; [12]): 3300 nM | IC50 (CK1δ/ε; [6]): 220 nM | IC50 (GSK-3α/β; [8]): 7000 nM

CC(C)n1cnc2c(NCc3ccc(-c4ccccn4)cc3)cc(NC(CO)CO)nc21 [Perharidine E, 3-Iso-Propyl-5-(1,3-dihydroxypropylamino)-7-[4-(2-pyridyl)-benzylamino]-imidazo[4,5-b]pyridine]
IC50 (CK1δ/ε; [6]): 280 nM | IC50 (CDK5/p25; [10]): 340 nM and 350 nM
